Reference: US20230257396A1, “MACROCYCLES AND THEIR USE” (BLOSSOMHILL THERAPEUTICS, INC., priority 2020, published 2023)
Changes are numbered by the printed parent chain.

Legend:
Assay in all cases: KINOMEscan kinase binding assay (Eurofins/DiscoveRx), % Ctrl
kinases [1] = target: T1, kinases (Homo sapiens, UniProt P00519, E255K)
T1 construct: purchased Eurofins/DiscoveRx; host or cells: E. coli BL21-derived host (T7 phage display) for most kinases; HEK-293 for the rest
How it was run: (§1)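 Competition binding, 1 h RT: phage-tagged or HEK-293-expressed DNA-tagged kinase + immobilized ligand + compound. Eluate kinase by qPCR. % Ctrl = (test − positive ctrl)/(negative ctrl − positive ctrl) × 100; lower means stronger binding.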

kinases [2] = target: T2, kinases (Homo sapiens, UniProt P00533, L858R)
T2 construct: purchased Eurofins/DiscoveRx; host or cells: E. coli BL21-derived host (T7 phage display) for most kinases; HEK-293 for the rest
How it was run: as §1

kinases [3] = target: T3, kinases (Homo sapiens, UniProt P00533, L861Q)
T3 construct: purchased Eurofins/DiscoveRx; host or cells: E. coli BL21-derived host (T7 phage display) for most kinases; HEK-293 for the rest
How it was run: as §1

kinases [4] = target: T4, kinases (Homo sapiens, UniProt P10721, D816V)
T4 construct: purchased Eurofins/DiscoveRx; host or cells: E. coli BL21-derived host (T7 phage display) for most kinases; HEK-293 for the rest
How it was run: as §1

kinases [5] = target: T5, kinases (Homo sapiens, UniProt P36888, D835H)
T5 construct: purchased Eurofins/DiscoveRx; host or cells: E. coli BL21-derived host (T7 phage display) for most kinases; HEK-293 for the rest
T5 sequence (P36888 27-993 D835H): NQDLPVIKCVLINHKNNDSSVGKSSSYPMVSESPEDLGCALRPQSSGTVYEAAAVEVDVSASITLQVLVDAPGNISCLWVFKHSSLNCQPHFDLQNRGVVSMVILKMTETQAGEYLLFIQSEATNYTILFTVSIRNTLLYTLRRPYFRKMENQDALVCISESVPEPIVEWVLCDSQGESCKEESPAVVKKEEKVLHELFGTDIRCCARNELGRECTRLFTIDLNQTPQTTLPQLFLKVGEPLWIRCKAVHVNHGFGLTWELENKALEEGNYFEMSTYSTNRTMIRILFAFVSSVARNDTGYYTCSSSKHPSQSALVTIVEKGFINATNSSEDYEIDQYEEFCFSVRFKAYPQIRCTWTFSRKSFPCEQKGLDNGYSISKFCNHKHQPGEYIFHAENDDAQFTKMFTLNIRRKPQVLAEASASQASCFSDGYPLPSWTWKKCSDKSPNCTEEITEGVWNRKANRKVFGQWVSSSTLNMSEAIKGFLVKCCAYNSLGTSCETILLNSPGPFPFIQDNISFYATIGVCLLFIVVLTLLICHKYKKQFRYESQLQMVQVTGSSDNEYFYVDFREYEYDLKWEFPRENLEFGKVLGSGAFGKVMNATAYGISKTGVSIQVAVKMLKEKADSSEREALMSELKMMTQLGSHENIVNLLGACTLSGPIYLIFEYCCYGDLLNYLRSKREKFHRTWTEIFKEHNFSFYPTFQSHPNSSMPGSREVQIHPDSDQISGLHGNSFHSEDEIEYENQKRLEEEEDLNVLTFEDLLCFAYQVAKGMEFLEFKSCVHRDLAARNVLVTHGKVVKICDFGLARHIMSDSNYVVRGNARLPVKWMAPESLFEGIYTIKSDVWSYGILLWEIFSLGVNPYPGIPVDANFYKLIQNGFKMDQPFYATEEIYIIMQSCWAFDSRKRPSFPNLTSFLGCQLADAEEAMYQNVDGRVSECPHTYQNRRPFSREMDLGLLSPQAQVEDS
How it was run: as §1

kinases [6] = target: T6, kinases (Homo sapiens, UniProt P36888, D835V)
T6 construct: purchased Eurofins/DiscoveRx; host or cells: E. coli BL21-derived host (T7 phage display) for most kinases; HEK-293 for the rest
T6 sequence (P36888 27-993 D835V): T5 sequence (P36888 27-993 D835H) with H809V
How it was run: as §1

[7] = 1 μM; ABL1(E255K)-phosphorylated
[8] = 1 μM; target ABL1(E255K)-phosphorylated

T4 sequence (P10721 26-976 D816V): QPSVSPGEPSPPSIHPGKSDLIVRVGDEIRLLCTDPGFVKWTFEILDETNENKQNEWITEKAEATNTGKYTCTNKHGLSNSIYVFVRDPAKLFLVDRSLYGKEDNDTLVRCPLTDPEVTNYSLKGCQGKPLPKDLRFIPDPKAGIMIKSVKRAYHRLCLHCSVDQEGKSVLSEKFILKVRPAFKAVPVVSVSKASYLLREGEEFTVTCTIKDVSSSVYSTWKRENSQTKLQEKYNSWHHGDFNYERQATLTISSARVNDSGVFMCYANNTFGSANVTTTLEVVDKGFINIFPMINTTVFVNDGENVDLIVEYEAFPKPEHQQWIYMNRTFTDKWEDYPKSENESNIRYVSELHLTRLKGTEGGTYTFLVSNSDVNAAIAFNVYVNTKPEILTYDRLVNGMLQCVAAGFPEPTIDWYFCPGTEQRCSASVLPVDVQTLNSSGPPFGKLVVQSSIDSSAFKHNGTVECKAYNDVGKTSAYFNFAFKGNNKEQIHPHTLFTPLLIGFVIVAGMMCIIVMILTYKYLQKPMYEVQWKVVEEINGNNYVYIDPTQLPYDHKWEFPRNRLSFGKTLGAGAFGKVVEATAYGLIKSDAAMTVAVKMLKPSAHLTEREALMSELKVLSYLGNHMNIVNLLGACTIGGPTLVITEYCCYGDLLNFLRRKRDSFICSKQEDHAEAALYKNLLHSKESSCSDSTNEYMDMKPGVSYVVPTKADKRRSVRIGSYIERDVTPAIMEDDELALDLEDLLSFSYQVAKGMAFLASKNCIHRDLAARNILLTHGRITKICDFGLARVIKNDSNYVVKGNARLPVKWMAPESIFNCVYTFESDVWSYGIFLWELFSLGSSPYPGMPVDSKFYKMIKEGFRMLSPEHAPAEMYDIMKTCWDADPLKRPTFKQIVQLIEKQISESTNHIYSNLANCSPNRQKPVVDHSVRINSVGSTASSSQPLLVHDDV
T1 sequence (P00519 whole entry E255K): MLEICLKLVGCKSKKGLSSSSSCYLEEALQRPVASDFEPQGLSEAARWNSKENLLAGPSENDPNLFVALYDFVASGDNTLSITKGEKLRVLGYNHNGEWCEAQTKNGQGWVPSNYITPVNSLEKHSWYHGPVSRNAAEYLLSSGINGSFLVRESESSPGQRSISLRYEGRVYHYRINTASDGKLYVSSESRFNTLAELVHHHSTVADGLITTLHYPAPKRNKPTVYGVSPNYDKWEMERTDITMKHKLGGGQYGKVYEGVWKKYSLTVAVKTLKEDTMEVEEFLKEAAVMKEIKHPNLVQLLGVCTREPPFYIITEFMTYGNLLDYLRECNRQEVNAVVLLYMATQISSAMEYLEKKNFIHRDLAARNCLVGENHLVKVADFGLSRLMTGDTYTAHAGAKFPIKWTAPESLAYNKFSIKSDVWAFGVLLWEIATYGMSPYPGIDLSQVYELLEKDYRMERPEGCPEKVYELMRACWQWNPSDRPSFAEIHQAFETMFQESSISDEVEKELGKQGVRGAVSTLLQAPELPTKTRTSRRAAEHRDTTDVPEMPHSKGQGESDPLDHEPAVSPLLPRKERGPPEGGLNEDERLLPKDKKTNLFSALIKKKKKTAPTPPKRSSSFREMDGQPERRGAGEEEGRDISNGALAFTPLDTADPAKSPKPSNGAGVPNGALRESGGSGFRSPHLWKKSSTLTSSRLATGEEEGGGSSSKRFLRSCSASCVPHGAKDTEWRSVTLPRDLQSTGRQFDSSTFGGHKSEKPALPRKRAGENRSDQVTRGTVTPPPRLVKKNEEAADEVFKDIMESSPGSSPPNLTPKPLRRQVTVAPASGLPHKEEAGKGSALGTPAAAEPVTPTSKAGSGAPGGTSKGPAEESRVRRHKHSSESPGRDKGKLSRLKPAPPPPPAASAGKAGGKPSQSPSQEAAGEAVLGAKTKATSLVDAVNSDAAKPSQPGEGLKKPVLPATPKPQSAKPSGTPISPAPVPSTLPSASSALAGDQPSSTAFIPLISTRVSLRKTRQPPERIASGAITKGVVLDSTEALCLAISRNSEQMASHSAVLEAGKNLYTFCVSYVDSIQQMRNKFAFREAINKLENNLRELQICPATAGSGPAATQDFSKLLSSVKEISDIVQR

Compound | % Ctrl, ABL1(E255K)-phosphorylated (kinases [1]; [7]) | % Ctrl, EGFR(L858R) (kinases [2]; 1 μM; EGFR(L858R)) | % Ctrl, EGFR(L861Q) (kinases [3]; 1 μM; EGFR(L861Q)) | % Ctrl, KIT(D816V) (kinases [4]; 1 μM; KIT(D816V)) | % Ctrl, FLT3(D835H) (kinases [5]; 1 μM; FLT3(D835H)) | % Ctrl, FLT3(D835V) (kinases [6]; 1 μM; FLT3(D835V)) | % Ctrl, ABL1(E255K)-phosphorylated (kinases [1]; [8]) | % Ctrl, EGFR(L858R) (kinases [2]; 1 μM; target EGFR(L858R)) | % Ctrl, EGFR(L861Q) (kinases [3]; 1 μM; target EGFR(L861Q)) | % Ctrl, KIT(D816V) (kinases [4]; 1 μM; target KIT(D816V)) | % Ctrl, FLT3(D835H) (kinases [5]; 1 μM; target FLT3(D835H)) | % Ctrl, FLT3(D835V) (kinases [6]; 1 μM; target FLT3(D835V)) | other results
Cc1cc2c([nH]1)/C=C1\C(=O)Nc3cc(Cl)c(cc31)OCCO[C@@H](C(=O)N(C)C)CN(C)C2=O [Ex. 137, [7R,16a(17)Z]-19-chloro-N,N,2,5-tetramethyl-4,16-dioxo-4,5,6,7,9,10,15,16-octahydro-1H-12,14-(ethanediylidene)dipyrrolo[3,2-i:3′,4′-l][1,4,7]dioxazacyclopentadecine-7-carboxamide] | 64 % Ctrl | 99 % Ctrl | 100 % Ctrl | 67 % Ctrl | 53 % Ctrl | 8.5 % Ctrl | – | – | – | – | – | – | –
Cc1cc2c([nH]1)/C=C1\C(=O)Nc3cc(Cl)c(cc31)SCCOCCN(C)C2=O [Ex. 169, [16a(17)Z]-19-chloro-5-methyl-6,7,9,10-tetrahydro-1H-12,14-(ethanediylidene)dipyrrolo[3,4-g:2′,3′-j][1,4,13]oxathiazacyclopentadecine-4,16(5H,15H)-dione] | – | – | – | – | – | – | 0.3 % Ctrl | 52 % Ctrl | 77 % Ctrl | 1.6 % Ctrl | 0.1 % Ctrl | 0 % Ctrl | –
Cc1cc2c([nH]1)/C=C1\C(=O)Nc3cc(Cl)c(cc31)OCCO[C@@H](C(=O)NC1CCNCC1)CN(C)C2=O [Ex. 134, [7R,16a(17)Z]-19-chloro-2,5-dimethyl-4,16-dioxo-N-(piperidin-4-yl)-4,5,6,7,9,10,15,16-octahydro-1H-12,14-(ethaneidylidene)dipyrrolo[3,2-i:3′,4′-l][1,4,7]dioxazacyclopentadecine-7-carboxamide] | 50 % Ctrl | 89 % Ctrl | 95 % Ctrl | 56 % Ctrl | 35 % Ctrl | 3.9 % Ctrl | – | – | – | – | – | – | –
Cc1cc2c([nH]1)/C=C1\C(=O)Nc3cc(Cl)c(cc31)OCCO[C@@H](C(=O)NC1CNC1)CN(C)C2=O [Ex. 133, [7R,16a(17)Z]-N-(azetidin-3-yl)-19-chloro-2,5-dimethyl-4,16-dioxo-4,5,6,7,9,10,15,16-octahydro-1H-12,14-(ethanediylidene)dipyrrolo[3,2-i:3′,4′-l][1,4,7]dioxazacyclopentadecine-7-carboxamide] | 70 % Ctrl | 95 % Ctrl | 97 % Ctrl | 34 % Ctrl | 39 % Ctrl | 2.3 % Ctrl | – | – | – | – | – | – | –
Cc1cc2c([nH]1)/C=C1\C(=O)Nc3ccc(cc31)-c1cnn(C)c1OCCCN(C)C2=O [Ex. 166, [3a(4)Z]-9,14-dimethyl-9,10,11,12-tetrahydro-14H-1,17-(ethanediylidene)pyrazolo[4,3-n]dipyrrolo[3,2-g:3′,4′-j][1,5]oxazacyclopentadecine-3,8(2H,5H)-dione] | – | – | – | – | – | – | 1.8 % Ctrl | 85 % Ctrl | 99 % Ctrl | 2.8 % Ctrl | 0.7 % Ctrl | 1.8 % Ctrl | –
Cc1cc2c([nH]1)/C=C1\C(=O)Nc3ccc(cc31)-c1c(C)nn(C)c1COCCN(C)C2=O [Ex. 146, [3a(4)Z]-6,9,14,16-tetramethyl-10,11,13,14-tetrahydro-2H-1,17-(ethanediylidene)pyrazolo[4,3-m]dipyrrolo[3,2-f:3′,4′-i][1,4]oxazacyclopentadecine-3,8(5H,9H)-dione] | – | – | – | – | – | – | – | – | – | – | – | – | % Ctrl, ABL1(E255K)-phosphorylated (kinases [1]; target ABL1(E255K)-phosphorylated; 1 μM): 57 % Ctrl; % Ctrl, EGFR(L858R) (kinases [2]; target EGFR(L858R); 1 μM): 88 % Ctrl; % Ctrl, EGFR(L861Q) (kinases [3]; target EGFR(L861Q); 1 μM): 89 % Ctrl; % Ctrl, KIT(D816V) (kinases [4]; target KIT(D816V); 1 μM): 80 % Ctrl; % Ctrl, FLT3(D835H) (kinases [5]; target FLT3(D835H); 1 μM): 5.7 % Ctrl; % Ctrl, FLT3(D835V) (kinases [6]; target FLT3(D835V); 1 μM): 0.2 % Ctrl
